Test results from patent US6921821B2, “Antagonists of melanin concentrating hormone receptor” (Abbott Laboratories, priority 2002, dated 2005).
Structures can show the parent of a compound that is named as a salt.

Target: T1, murine MCHR (Mus musculus, UniProt Q8JZL2)
T1 construct: expressed in transfected cells; host or cells: HEK293
Assay: Assay for release of intracellular calcium (FLIPR, Fluo-4), inhibition of MCH-induced Ca++ flux
Format: cell-based
Details: test compound at a dose of 10 μM, HEK293 cells expressing the murine MCHR, read-out: inhibition of MCH (MCH induced Ca++ flux / fluorescence)
Method in brief: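 HEK293 cells expressing murine MCHR were loaded with Fluo-4AM (2.5 μM) and given compound (40 μM stock in 4% DMSO), with 3 min monitoring for agonism. They were then challenged with mouse MCH (12 nM as added) and FLIPR fluorescence followed 3 min more. % inhibition of MCH-induced Ca++ flux was calculated against baseline and no-compound signals.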

T1 sequence (Q8JZL2 whole entry): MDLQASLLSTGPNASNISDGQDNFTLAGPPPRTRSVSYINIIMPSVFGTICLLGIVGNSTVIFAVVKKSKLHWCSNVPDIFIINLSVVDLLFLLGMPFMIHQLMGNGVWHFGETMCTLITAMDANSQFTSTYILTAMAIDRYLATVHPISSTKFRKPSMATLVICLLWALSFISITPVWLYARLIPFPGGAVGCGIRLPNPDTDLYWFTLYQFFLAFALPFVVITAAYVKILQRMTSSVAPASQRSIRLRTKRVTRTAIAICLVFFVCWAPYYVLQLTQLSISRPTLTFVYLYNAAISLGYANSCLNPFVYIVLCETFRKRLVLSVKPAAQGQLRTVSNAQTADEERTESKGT

Row | Compound | inhibition at 10 µM [%]
1 | COc1ccc2oc(=O)cc(NC3CCN(Cc4cc5ccccc5n4C)CC3)c2c1 [II-84, 6-Methoxy-4-[1-(1-methyl-1H-indol-2-ylmethyl)-piperidin-4-ylamino]-chromen-2-one, trifluoroacetate] | ≥ 50
2 | O=c1cc(NC2CCN(Cc3ccc4occc4c3)CC2)c2cc(Cl)ccc2n1Cc1ccccn1 [Compound V-26, 4-(1-Benzofuran-5-ylimethyl-piperidin-4-ylamino)-6-chloro-1-pyridin-2-ylmethyl-1H-quinolin-2-one] | ≥ 50
3 | Cn1c(=O)cc(NC2CCN(Cc3ccc4ccccc4c3)CC2)c2cc(O)ccc21 [Compound V-46, 6-Hydroxy-1-methyl-4-(1-naphthalen-2-ylmethyl-piperidin-4-ylamino)-1H-quinolin-2-one] | ≥ 50
4 | CCc1ccc2c(c1)c(NC1CCN(C(C)c3ccc4c(c3)OCO4)CC1)cc(=O)n2CC (centres unmarked) [Compound V-18, 4-[1-(1-Benzo[1,3]dioxol-5-yl-ethyl)-piperidin-4-ylamino]-1,6-diethyl-1H-quinolin-2-one] | ≥ 50
5 | COc1ccc2c(c1)c(NC1CCN(C/C=C/c3ccccc3)CC1)cc(=O)n2C [Compound V-14, 6-Methoxy-1-methyl-4-[1-(3-phenyl-allyl)-piperidin-4-ylamino]-1H-quinolin-2-one] | ≥ 50
6 | COc1ccc2oc(=O)cc(NC3CCN(Cc4ccc(C)cc4C)CC3)c2c1 [II-25, 4-[1-(2,4-Dimethyl-benzyl)-piperidin-4-ylamino]-6-methoxy-chromen-2-one trifluoroacetate] | ≥ 50
7 | O=c1cc(NC2CCN(C/C=C/c3ccccc3F)CC2)c2ccccc2o1 [III-14, 4-{1-[3-(2-Fluoro-phenyl)-allyl]-piperidin-4-ylamino}-chromen-2-one] | ≥ 50
8 | O=c1cc(NC2CCN(C/C=C/c3ccccc3Cl)CC2)c2cc(Cl)ccc2o1 [III-2, 6-Chloro-4-{1-[3-(2-chloro-phenyl)-allyl]-piperidin-4-ylamino}-chromen-2-one] | ≥ 50
9 | COc1ccc2c(c1)c(NC1CCN(Cc3ccc4c(c3)OCO4)CC1)c(C(=O)N(C)C)c(=O)n2C [Compound V-60, 4-(1-Benzo[1,3]dioxol-5-ylmethyl-piperidin-4-ylamino)-6-methoxy-1-methyl-2-oxo-1,2-dihydro-quinoline-3-carboxylic acid dimethylamide] | ≥ 50
10 | Cn1c(=O)c(C(=O)N2CCCC2)c(NC2CCN(Cc3ccc4c(c3)OCO4)CC2)c2cc(Cl)ccc21 [Compound V-59, 4-(1-Benzo[1,3]dioxol-5-ylmethyl-piperidin-4-ylamino)-6-chloro-1-methyl-3-(pyrrolidine-1-carbonyl)-1H-quinolin-2-one] | ≥ 50
11 | COc1ccc2oc(=O)cc(NC3CCN(C/C=C/c4ccccc4)CC3)c2c1 [III-1, 6-Methoxy-4-[1-(3-phenyl-allyl)-piperidin-4-ylamino] chromen-2-one] | ≥ 50
12 | COc1ccc2oc(=O)cc(NC3CCN(Cc4ccc5ccc(C)cc5c4)CC3)c2c1 [II-27, 6-Methoxy-4-[1-(7-methyl-naphthalen-2-ylmethyl)-piperidin-4-ylamino]-chromen-2-one trifluoroacetate] | ≥ 50
13 | CC(=O)c1ccc(C(C)N2CCC(Nc3cc(=O)oc4ccc(Cl)cc34)CC2)cc1 (racemic) [II-116, 4-{1-[1-(4-acetylphenyl)-ethyl]-piperidin-4-ylamino}-6-chlorochromen-2-one] | ≥ 50
14 | O=c1cc(NC2CCN(Cc3ccc4ccccc4c3)CC2)c2cc(OC(F)F)ccc2o1 [II-32, 6-Difluoromethoxy-4-(1-naphthalen-2-ylmethyl-piperidin-4-ylamino)-chromen-2-one] | ≥ 50
15 | O=c1cc(NC2CCN(C/C=C/c3ccccc3F)CC2)c2cc(Cl)ccc2o1 [III-56, 6-Chloro-4-{1-[3-(2-fluoro-phenyl)-allyl]-piperidin-4-ylamino}-chromen-2-one] | ≥ 50
16 | O=c1cc(NC2CCN(Cc3ccc4c(c3)OCO4)CC2)c2cccc3c2n1CCC3 [Compound V-36, 1-(1-Benzo[1,3]dioxol-5-ylmethyl-piperidin-4-ylamino)-6,7-dihydro-5H-pyrido[3,2,1-ij]quinolin-3-one] | ≥ 50
17 | COc1ccc2oc(=O)cc(NC3CCN(Cc4cccc(C)c4)CC3)c2c1 [II-92, 6-Methoxy-4-[1-(3-methyl-benzyl)-piperidin-4-ylamino]-chromen-2-one trifluoroacetate] | ≥ 50
18 | N#Cc1ccc2oc(=O)cc(NC3CCN(C/C=C/c4ccccc4)CC3)c2c1 [III-59, 2-Oxo-4-[1-(3-phenyl-allyl)-piperidin-4-ylamino]-2H-chromene-6-carbonitrile] | ≥ 50
19 | Cn1c(=O)cc(NC2CCN(C/C=C/c3ccccc3)CC2)c2ccccc21 [Compound V-47, 1-Methyl-4-[1-(3-phenyl-allyl)-piperidin-4-ylamino]-1H-quinolin-2-one] | ≥ 50
20 | COc1cccc(CN2CCC(Nc3cc(=O)oc4ccc(OC)cc34)CC2)c1 [II-76, 6-Methoxy-4-[1-(3-methoxy-benzyl)-piperidin-4-ylamino]-chromen-2-one trifluoroacetate] | ≥ 50
21 | Cn1c(=O)c(C#N)c(NC2CCN(Cc3ccc4c(c3)OCO4)CC2)c2cc(Cl)ccc21 [Compound V-51, 4-(1-Benzo[1,3]dioxol-5-ylmethyl-piperidin-4-ylamino)-6-chloro-1-methyl-2-oxo-1,2-dihydro-quinoline-3-carbonitrile] | ≥ 50
22 | Cc1ccc2oc(=O)cc(NC3CCN(C/C=C/c4ccccc4)CC3)c2c1 [III-6, 6-Methyl-4-[1-(3-phenyl-allyl)-piperidin-4-ylamino]-chromen-2-one] | ≥ 50
23 | CON(C)C(=O)c1c(NC2CCN(Cc3ccc4c(c3)OCO4)CC2)c2cc(Cl)ccc2n(C)c1=O [Compound V-52, 4-(1-Benzo[1,3]dioxol-5-ylmethyl-piperidin-4-ylamino)-6-chloro-1-methyl-2-oxo-1,2-dihydro-quinoline-3-carboxylic acid methoxy-methyl-amide] | ≥ 50
24 | CC(c1ccc(Cl)cc1)N1CCC(Nc2cc(=O)oc3ccc(Cl)cc23)CC1 (centres unmarked) [II-74, 6-Chloro-4-{1-[1-(4-chloro-phenyl)-ethyl]-piperidin-4-ylamino}-chromen-2-one] | ≥ 50

The remaining lines, values ahead:

Row | inhibition at 10 µM [%] | Compound
25 | ≥ 50 | O=c1cc(NC2CCN(Cc3cccc4ccccc34)CC2)c2cc(Cl)ccc2o1 [II-5, 6-Chloro-4-(1-naphthalen-1-ylmethyl-piperidin-4-ylamino)-chromen-2-one]
26 | ≥ 50 | COc1ccc2oc(=O)cc(NC3CCN(Cc4cccc(F)c4)CC3)c2c1 [II-79, 4-[1-(3-Fluoro-benzyl)-piperidin-4-ylamino]-6-methoxy-chromen-2-one trifluoroacetate]
27 | ≥ 50 | O=c1cc(NC2CCN(Cc3ccc4c(c3)OCO4)CC2)c2cc(Cl)ccc2o1 [II-4, 4-(1-Benzo[1,3]dioxol-5ylmethyl-piperidin-4-ylamino)-6-chloro-chromen-2-one]
28 | ≥ 50 | O=c1cc(NC2CCN(Cc3ccc(OCCCN4CCCCC4)cc3)CC2)c2cc(Cl)ccc2o1 [II-49, 6-Chloro-4-{1-[4-(3-piperidin-1-yl-propoxy)-benzyl]-piperidin-4-ylamino}-chromen-2-one; Double TFA Salt]
29 | ≥ 50 | COc1ccc2oc(=O)cc(NC3CCN(Cc4ccc(OCCCN5CCCCC5)c(Cl)c4)CC3)c2c1 [II-115, 4-{1-[3-Chloro-4-(3-piperidin-1-yl-propoxy)-benzyl]-piperidin-4-ylamino}-6-methoxy-chromen-2-one; Double TFA Salt]
30 | ≥ 50 | O=c1cc(NC2CCN(Cc3ccc4ccoc4c3)CC2)c2cc(Cl)ccc2o1 [II-36, 4-(1-Benzofuran-6-ylmethyl-piperidin-4-ylamino)-6-chloro-chromen-2-one]
31 | ≥ 50 | COc1ccc2oc(=O)cc(NC3CCN(Cc4ccc(O)c(F)c4)CC3)c2c1 [II-88, 4-[1-(3-Fluoro-4-hydroxy-benzyl)-piperidin-4-ylamino]-6-methoxy-chromen-2-one hydrochloride]
32 | ≥ 50 | O=c1cc(NC2CCN(Cc3cc(Cl)c4occc4c3)CC2)c2cc(Cl)ccc2o1 [II-93, 6-Chloro-4-[1-(7-chloro-benzofuran-5-ylmethyl)-piperidin-4-ylamino]-chromen-2-one]
33 | ≥ 50 | COc1ccc2oc(=O)cc(NC3CCN(Cc4ccc(C(=O)N5CCN(Cc6ccccc6)CC5)cc4)CC3)c2c1 [II-94, 4-{1-[4-(4-Benzyl-piperazine-1-carbonyl)-benzyl]-piperidin-4-ylamino}-6-methoxy-chromen-2-one; Double TFA Salt]
34 | ≥ 50 | COc1ccc2oc(=O)cc(NC3CCN(Cc4ccc5ncccc5c4)CC3)c2c1 [II-112, 6-Methoxy-4-(1-quinolin-6-ylmethyl-piperidin-4-ylamino)-chromen-2-one]
35 | ≥ 50 | O=c1cc(NC2CCN(Cc3ccc4ncccc4c3)CC2)c2cc(Cl)ccc2o1 [II-40, 6-Chloro-4-(1-quinolin-6-ylmethyl-piperidin-4-ylamino)-chromen-2-one]
36 | ≥ 50 | O=C(NCCN1CCCC1)c1ccc(CN2CCC(Nc3cc(=O)oc4ccc(Cl)cc34)CC2)cc1 [II-55, 4-[4-(6-Chloro-2-oxo-2H-chromen-4-ylamino)-piperidin-1-ylmethyl]-N-(2-pyrrolidin-1-yl-ethyl)-benzamide; Double TFA Salt]
37 | ≥ 50 | COc1ccc2oc(=O)cc(NC3CCN(Cc4ccc(C(=O)NCCN5CCCCC5)cc4)CC3)c2c1 [II-69, 4-[4-(6-Methoxy-2-oxo-2H-chromen-4-ylamino)-piperidin-1-ylmethyl]-N-(2-piperidin-1-yl-ethyl)-benzamide; Double TFA Salt]
38 | ≥ 50 | COc1ccc2oc(=O)cc(NC3CCN(Cc4ccc(Cl)c(F)c4)CC3)c2c1 [II-58, 4-[1-(4-Chloro-3-fluoro-benzyl)-piperidin-4-ylamino]-6-methoxy-chromen-2-one trifluoroacetate]
